From paper PMC10626537, “Pharmacokinetic and pharmacodynamic studies of nicotine in rat brain: a simultaneous investigation of nicotine metabolites and the release of neurotransmitters in vivo” (Frontiers in Chemistry, 2023)
Read-outs that look alike come from different tables or passages of the source.

Experiments:
[1] = system: release of neurotransmitters in the NAc; assay: Microdialysis release of neurotransmitters in rat NAc after Nic exposure under regulation of Nic metabolism; format: in vivo; conditions: for peak concentration of DOPAC / peak concentration of HVA: after Nic stimulation (2 mg kg^-1 ip)
Experimental: (§1) To inhibit the main Nic metabolic enzyme CYP2B in the brain, rats received intraperitoneal injections of proadifen (50 mg kg^−1·day^−1, 4 d) ([Song et al., 2012]). Control animals were pretreated with saline using the same protocol. All the rats were sacrificed by cardiac perfusion after microdialysis sampling. The brain tissues were separated and divided into four parts (cerebrum, cerebellum, diencephalon, and brainstem). The CYP2B activity in different rat brain regions was determined following the instructions of the GENMED CYP2B1 activity fluorescence quantitative detection kit (GENMED SCIENTIFICS INC. U.S.A, GMS18019.1).
(§2) The mass spectrometer was operated in positive ionization mode. […] The normalized collision energy was set at 10%.

CYP2B1 = target: T1, CYP2B1 (Rattus norvegicus, UniProt P00176); assay: CYP2B1 activity in rat brain tissue after proadifen pretreatment (GENMED CYP2B1 activity fluorescence quantitative detection kit); format: in vivo; conditions: 4 days
T1 construct: The brain tissues were separated and divided into four parts (cerebrum, cerebellum, diencephalon, and brainstem); from tissue; host or cells: brain tissue (cerebrum, cerebellum, diencephalon, brainstem) of male Sprague Dawley rats
T1 sequence (P00176 1-491): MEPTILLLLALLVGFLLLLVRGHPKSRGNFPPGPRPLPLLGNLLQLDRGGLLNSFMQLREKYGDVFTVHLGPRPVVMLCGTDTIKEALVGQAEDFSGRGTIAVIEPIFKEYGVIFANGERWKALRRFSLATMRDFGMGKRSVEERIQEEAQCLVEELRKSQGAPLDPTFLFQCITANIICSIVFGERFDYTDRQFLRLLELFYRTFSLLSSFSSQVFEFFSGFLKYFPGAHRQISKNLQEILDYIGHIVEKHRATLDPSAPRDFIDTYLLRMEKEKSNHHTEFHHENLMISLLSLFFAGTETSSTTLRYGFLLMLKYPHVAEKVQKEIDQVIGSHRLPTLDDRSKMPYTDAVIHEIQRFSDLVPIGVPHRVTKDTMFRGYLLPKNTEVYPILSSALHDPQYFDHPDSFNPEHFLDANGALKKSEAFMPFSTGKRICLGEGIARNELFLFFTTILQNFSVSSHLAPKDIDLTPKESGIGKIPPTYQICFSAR
Experimental: as §1

[2] = Online brain microdialysis UHPLC-HRMS/MS pharmacokinetics of Nic and its main metabolites in rat NAc after single Nic injection; format: in vivo; design: AUC0–360 min: unit not given here; conditions: for Cmax / MRT / Tmax / half-life: rat, brain microdialysate (NAc), ip; for half-life: read-out: t 1/2z
Experimental: as §1, §2

[3] = system: monoamine neurotransmitters in rat striatum; conditions: rat striatum dialysate; after 3 h of Nic exposure (2 mg kg^-1 ip)
From the text: Anesthesia was induced with 3% isoflurane in an induction chamber before surgical procedures and was placed in a stereotaxic frame equipped with a rat ear and bite bar. Rat was maintained under anesthesia with 1%–2% isoflurane during operation procedures. And the cranium above the ventral striatum (coordinates relative to bregma: anterior/posterior (AP), +1.2 mm; medial/lateral (ML), −2.4 mm; dorsal/ventral (DV), −6.0 mm) or NAc (coordinates relative to bregma: anterior/posterior (AP), +1.7 mm; medial/lateral (ML), −1.5 mm; dorsal/ventral (DV), −6.5 mm) was exposed to implant the probe guide-cannula (CMA/12), two screws were implanted into the skull to serve as an anchor and dental cement was used as an adhesive to fixed the probe guide-cannula. To avoid the interference of neurotransmitter changes due to physical stimulation of pain receptors during intraperitoneal injection of Nic, Nic was injected with the aid of an administration catheter (Instech, BTPU-040, 6.35 × 10.16 mm, America), which was implanted in the abdomen, the other end of the catheter was passed under the skin and sent to the back and sealed with a plug (Instech, PNP3M-F22R, America). The rats were housed individually and allowed to recover from surgery for at least 24 h.
For in vivo microdialysis sampling, the probe (CMA/12 Elite, membrane parameters: polyarylethersulfone material; 2 mm length; φ 0.5 mm; 20 kDa cut-off) was inserted into the brain through the cannula. After implantation, the probe was perfused with Ringer’s solution by the syringe pump (CMA/402, piston propulsion speed: 2.4 μm·min^-1–1.2 mm min^-1; velocity range: 0.1 μL·min^-1–20 μL min^-1; precision: −1.5%-1.5%) at fixed flow rates (1.5 μL min^-1), and the dialysates were analyzed under the optimized UHPLC-HRMS/MS condition directly. Intraperitoneal administration of 2 mg kg^-1 Nic was performed until stable levels of neurotransmitters were obtained, which was defined as the mean value of neurotransmitter concentrations in six consecutive samples varied by no more than 10%.
UHPLC-HRMS/MS system was performed on Dionex Ultimate 3000 UHPLC equipped with a Q-Exactive mass spectrometer and electrospray ionization (ESI) interface (Thermo Fisher Scientific, Germany). Chromatographic separation was achieved by the pentafluorophenyl phase column (Discovery® HS F5-3 column, 2.1 × 150 mm, 3 μm) with linear binary gradient elution, at a flow rate of 0.5 mL min^-1. Eluent A was 10 mM ammonium acetate with FA (0.1%, v/v) dissolved in water, and eluent B was acetonitrile with 0.1% FA (v/v). […] From 3 to 6 min, a linear gradient was applied from 45% to 75% B and then return linearly to the initial condition at 9 min and the column was allowed to equilibrate for 1 min.
The mass spectrometer was operated in positive ionization mode. The optimized mass spectrometer parameters were as follows: a resolution of 35000; automatic gain control (AGC) target was 2.0 e^5; maximum injection time (IT) was 100 m; 3.5 kV for spray voltage; ion transfer tube temperature, 350°C; S-Lens RF level, 60%. The isolation window of the precursor ions was done using a quadrupole with an isolation window of m/z 1. The normalized collision energy was set at 10%. Analytes were determined by a parallel reaction monitoring (PRM) method by acquiring two transitions for each compound. The most specific transition was selected for the quantitative purpose. All data were gathered and analyzed using Xcalibur 2.2 software (Thermo Fisher Scientific, Germany). […]

[4] = Nic 2 mg kg^-1 ip, proadifen vs saline pretreatment
[5] = rat NAc, Nic 2 mg kg^-1 ip, Prodifine (proadifen) pretreated
[6] = rat NAc, Nic 2 mg kg^-1 ip, saline-pretreated
[7] = 2 mg/kg, rat NAc, Nic 2 mg kg^-1 ip, Prodifine (proadifen) pretreated
[8] = 2 mg/kg, rat NAc, Nic 2 mg kg^-1 ip, saline-pretreated
[9] = after Nic exposure, proadifen pretreatment group

SMILES	CL/F [2, 5]	CL/F [2, 6]	Cmax [2, 7]	MRT [2, 7]	Tmax [2, 7]	half-life [2, 7]	Cmax [2, 8]	MRT [2, 8]	Tmax [2, 8]	half-life [2, 8]	other results
CCCC(C(=O)OCCN(CC)CC)(c1ccccc1)c1ccccc1 [proadifen]	–	–	–	–	–	–	–	–	–	–	effect of proadifen inhibition on Nic-induced peak level of Ach ([1]; Nic 2 mg kg^-1 ip): did not further increased it; average level of GABA in proadifen group relative to saline group [1, 4]: 2.7 times; average level of serotonin under inhibition of nicotine metabolism relative to control [1, 4]: 1.2 times; decrease of whole brain CYP2B1 activity on average (CYP2B1; proadifen 50 mg kg^-1 d^-1 ip, vs saline-pretreated rats): 36.9%; effect on brain CYP2B1 activity (CYP2B1; proadifen 50 mg·kg^−1·d^−1 ip): significant inhibition
CN1C(=O)CC[C@H]1c1cccnc1 [Cot, (−) cotinine]	7.0 mL/min	9.0 mL/min	20.3 ng/mL	3.12 h	120 min	131 min	16.7 ng/mL	3.11 h	160 min	104 min	–
CN1CCC[C@H]1c1cccnc1 [Nic, (−) nicotine]	14.0 mL/min	25.0 mL/min	1220 ng/mL	1.89 h	30 min	76.7 min	968 ng/mL	1.43 h	30 min	129 min	C max of 5-HIAA [1, 9]: ~240 % of baseline; C max of 5-HT [1, 9]: ~390 % of baseline; peak level of Ach relative to baseline ([1]; after Nic injection): almost doubled; peak concentration of DOPAC ([1]; proadifen pretreated group): ~340 % of the baseline; peak concentration of HVA ([1]; proadifen pretreated group): ~330 % of the baseline; peak concentration of DOPAC ([1]; saline group): ~290 % of the baseline; peak concentration of HVA ([1]; saline group): ~270 % of the baseline; time by which Nic was almost completely cleared from the rat brain ([2]; Nic 2 mg kg^-1 ip): ≤ 360 min; brain C max of Nic in proadifen group relative to saline group ([2]; rat brain, Nic 2 mg kg^-1 ip, proadifen-pretreated vs saline): 1.26 times; Cmax ([2]; 2 mg kg^-1, rat NAc, Nic 2 mg kg^-1 ip, Prodifine (proadifen) pretreated): 1220 ng/mL; average level of 5-HIAA [3]: 234.4 µg/L; average level of 5-HT [3]: 45.9 µg/L; average level of DA [3]: 25.1 µg/L; average level of DOPAC [3]: 99.2 µg/L; average level of HVA [3]: 169.8 µg/L
C[N@+]1([O-])CCC[C@H]1c1cccnc1 [NNO, (1′S, 2′S)-nicotine-1′-oxide]	3.2 mL/min	5.0 mL/min	5.2 ng/mL	1.57 h	40 min	53.7 min	15.1 ng/mL	2.39 h	30 min	48.1 min	AUC0–360 min ([2]; rat NAc dialysate, Nic 2 mg kg^-1 ip single injection, Prodifine (proadifen 50 mg kg^-1 d^-1 ip, 4 days) pretreated, two-compartmental model): 0.6; decrease of C max (level) of Nic metabolite after CYP2B1 inhibition compared with control rats ([2]; rat brain, Nic 2 mg kg^-1 ip, proadifen-pretreated vs saline control): 65.6%
